Active and inactive are the calls of the source. The calls are words filed in the database; no cut-off is given here.
What was measured:
Tyrosinase [1] = target: T1, Tyrosinase (Agaricus bisporus, UniProt O42713); assay: Inhibition of mushroom tyrosinase using L-DOPA as substrate preincubated for 10 mins with substrate followed by enzyme addition measured after 15 mins by spectrophotometry
T1 sequence (O42713 whole entry): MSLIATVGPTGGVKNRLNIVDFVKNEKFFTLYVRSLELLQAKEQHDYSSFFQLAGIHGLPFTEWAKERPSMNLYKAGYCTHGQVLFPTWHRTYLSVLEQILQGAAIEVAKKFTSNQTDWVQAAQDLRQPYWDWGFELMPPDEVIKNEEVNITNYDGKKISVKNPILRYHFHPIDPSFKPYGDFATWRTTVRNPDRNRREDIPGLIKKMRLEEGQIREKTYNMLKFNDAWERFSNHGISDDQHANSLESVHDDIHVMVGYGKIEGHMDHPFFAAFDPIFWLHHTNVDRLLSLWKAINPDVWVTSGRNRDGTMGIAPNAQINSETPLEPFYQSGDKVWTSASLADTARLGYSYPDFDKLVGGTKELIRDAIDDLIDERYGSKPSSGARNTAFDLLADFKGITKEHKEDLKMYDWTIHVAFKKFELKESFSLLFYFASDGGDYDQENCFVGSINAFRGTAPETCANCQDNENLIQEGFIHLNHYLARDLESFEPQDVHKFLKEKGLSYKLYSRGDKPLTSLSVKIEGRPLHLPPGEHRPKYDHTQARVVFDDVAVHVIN

Tyrosinase [2] = target: T1, Tyrosinase; assay: Competitive inhibition of mushroom tyrosinase using L-tyrosine as substrate preincubated for 10 mins with substrate followed by enzyme addition measured after 15 mins by Dixon plot analysis
Tyrosinase [3] = target: T1, Tyrosinase; assay: Competitive inhibition of mushroom tyrosinase using L-DOPA as substrate preincubated for 10 mins with substrate followed by enzyme addition measured after 15 mins by Dixon plot analysis
[4] = target: T2, Tyrosinase (Agaricus bisporus) (UniProt O42713); assay: (§1) Inhibition of mushroom tyrosinase using L-tyrosine as substrate preincubated for 10 mins with substrate followed by enzyme addition measured after 15 mins by spectrophotometry
T2 sequence (whole entry): T1 sequence (O42713 whole entry)

Tyrosinase [5] = target: T1, Tyrosinase; assay: as §1
[6] = target: T2, Tyrosinase (Agaricus bisporus); assay: Ratio of kojic acid IC50 to compound IC50 for mushroom tyrosinase using L-tyrosine as substrate
[7] = target: T2, Tyrosinase (Agaricus bisporus); assay: Inhibition of mushroom tyrosinase using L-tyrosine as substrate at 0.78 uM by spectrophotometry; conditions: TDE = time-dependent effect
[8] = target: T2, Tyrosinase (Agaricus bisporus); assay: Reversible inhibition of mushroom tyrosinase at 0.781 to 3.125 uM

## CC(C)=CCc1c2c(c(O)c3c1O[C@H](c1ccc(O)cc1O)CC3=O)C=CC(C)(C)O2 [FLEMICHIN D]
Tyrosinase [1]
  IC50: 7.48 µM
Tyrosinase [2]
  Ki: 0.86 µM
Tyrosinase [3]
  Ki: 3.77 µM
[4]
  inhibition: Dose-dependent effect
Tyrosinase [5]
  IC50: 1.79 µM

## COc1ccc(CCC(=O)c2c(O)c(CC=C(C)C)c3c(c2O)CC(O)C(C)(C)O3)cc1 (centres undefined)
[6]
  Ratio IC50: 10
Tyrosinase [1]
  IC50: 19.5 µM
Tyrosinase [2]
  Ki: 0.48 µM
[7]
  inhibition: tde
Tyrosinase [3]
  Ki: 8.16 µM
[4]
  inhibition: Dose-dependent effect
Tyrosinase [5]
  IC50: 1.01 µM
[8]
  inhibition: Active

## COc1ccc(CCC(=O)c2ccc3c(c2O)CC(O)C(C)(C)O3)cc1 (centres undefined)
Tyrosinase [1]
  IC50: 32.6 µM
Tyrosinase [2]
  Ki: 9.36 µM
Tyrosinase [3]
  Ki: 13.3 µM
[4]
  inhibition: Dose-dependent effect
Tyrosinase [5]
  IC50: 18.4 µM

## COc1ccc([C@@H]2CC(=O)c3c(O)c4c(c(CC=C(C)C)c3O2)OC(C)(C)C=C4)c(O)c1 [KHONKLONGINOL H]
Tyrosinase [1]
  IC50: 20.4 µM
Tyrosinase [2]
  Ki: 2.07 µM
Tyrosinase [3]
  Ki: 8.15 µM
[4]
  inhibition: Dose-dependent effect
Tyrosinase [5]
  IC50: 4.96 µM

## CC(C)=CCc1c2c(c(O)c3c1O[C@H](c1ccc(O)cc1)CC3=O)C=CC(C)(C)O2 [LUPINIFOLIN]
Tyrosinase [1]
  IC50: 84.1 µM
Tyrosinase [2]
  Ki: 5.33 µM
Tyrosinase [3]
  Ki: 36.3 µM
[4]
  inhibition: Dose-dependent effect
Tyrosinase [5]
  IC50: 11.2 µM

## COc1ccc(CCC(=O)c2c(O)c3c(c4c2OC(C(C)(C)O)C4)OC(C)(C)C=C3)cc1 (centres undefined)
[6]
  Ratio IC50: 10
Tyrosinase [1]
  IC50: 5.22 µM
Tyrosinase [2]
  Ki: 0.63 µM
Tyrosinase [3]
  Ki: 2.74 µM
[4]
  inhibition: Dose-dependent effect
Tyrosinase [5]
  IC50: 1.28 µM

From ChEMBL document CHEMBL3102744, “Inhibition of tyrosinase activity by polyphenol compounds from Flemingia philippinensis roots” (Bioorg Med Chem, 2014)
